Test results as given in US10576101B2, “Roneparstat combined therapy of multiple myeloma” (Leadiant Biosciences SA, priority 2015, dated 2020).
Read-outs that look alike come from different tables or passages of the source.

Key:
CAG HPSE high cells [1] = test: Experimental metastasis model of myeloma, roneparstat in vivo combination with bortezomib; set-up: species or system Mouse, CB. 17/Icr SCID; conditions: roneparstat 120 mg/kg/day s.c., bortezomib 0.5 mg/kg/twice a week i.p., two weeks, serum Day 21
[2] = system: a variety of cancer cell types; conditions: cited from earlier work
[3] = system: nonclinical tumor models, including multiple myeloma; conditions: cited from earlier work
HPSE-high cells = test: Cell viability by MTT assay, roneparstat with carfilzomib; format: cell-based, human; conditions: roneparstat 6.75 μM or carfilzomib 15 nM alone
Text: CAG human myeloma cell line was established at the Myeloma Institute for Research and Therapy (Little Rock, Ark.). CAG cells with modified levels of heparanase expression have been extensively characterized and include (a) heparanase-low (HPSE-low) cells prepared by transfection with empty vector; and (b) heparanase-high (HPSE-high) cells prepared by transfection with vector containing the cDNA for human heparanase. Although HPSE-high cells express a 4-fold higher level of heparanase than do the HPSE-low cells, the elevated levels of enzyme activity present in HPSE-high cells are in the same range as that present in the bone marrow of many myeloma patients (Kelly T. et al, Cancer Res 2003; 63:8749-56). […] The preparation of the CAG-HPSE high cells is described in Yang Y, et al, The Journal Of Biological Chemistry, Vol. 282, No. 18, pp. 13326-13333, May 4, 2007 (see in particular page 13327, left column, the paragraph beginning with “For transfections . . . ”).
HPSE-high cells were seeded in serum free media overnight and then treated with 6.75 μM roneparstat (Rone) for 6 hours, washed and then treated with carfilzomib (CFZ) (15 nM) for 14 hours and viability was assessed by MTT assay. The MTT assay is a colorimetric assay for assessing cell viability, which takes its name from tetrazolium dye MTT (3-(4,5-dimethylthiazol-2-yl)-2,5-diphenyltetrazolium bromide). […]

[4] = system: solid and hematologic tumor cells; conditions: cited from earlier work
proteasome = conditions: in animals; cited from earlier work
[5] = system: models of multiple myeloma, hematologic, and solid tumors; conditions: cited from earlier work
CAG HPSE high cells [6] = format: in vivo, Mouse, CB. 17/Icr SCID
CAG HPSE high cells [7] = format: in vivo, Mouse, CB. 17/Icr SCID; remark: listed apart in the source
multiple myeloma = conditions: high-dose 200 mg/m^2 followed by ASCT after VAD induction, patients younger than 65 years; cited from earlier work
diabetic nephropathy = conditions: mouse models of diabetic nephropathy; cited from earlier work
[8] = roneparstat 60 mg/kg/day s.c., melphalan 1 mg/kg/week i.p., two weeks, serum Day 21

CC(C)C[C@H](NC(=O)[C@H](Cc1ccccc1)NC(=O)c1cnccn1)B(O)O [Bortezomib]
% of animals with kappa levels (above detection limit) (CAG HPSE high cells [1]): 75%
animals with detectable levels of human immunoglobulin light chain (detectable tumor burden) (CAG HPSE high cells [1]): 8/10
cytotoxicity in vitro [2]: cytotoxic
tumor growth in vivo [3]: causes a delay in tumor growth

CC(C)C[C@H](NC(=O)[C@H](CCc1ccccc1)NC(=O)CN1CCOCC1)C(=O)N[C@@H](Cc1ccccc1)C(=O)N[C@@H](CC(C)C)C(=O)[C@@]1(C)CO1 [Carfilzomib, (2S)—N—((S)-1-((S)-4-methyl-1-((R)-2-methyloxiran2-yl)-1-oxopentan-2-ylcarbamoyl)-2-phenylethyl)-2-((S)-2-(2-morpholinoacetamido)4-phenylbutanamido)-4-methylpentanamide]
decrease of viability (MTT), agent administered alone (HPSE-high cells): neither roneparstat or carfilzomib provided significant results
antiproliferative and proapoptotic activities in vitro [4]: had antiproliferative and proapoptotic activities
proteasome activity in blood and tissue (proteasome): inhibited proteasome activity
tumor growth [5]: delayed tumor growth

N[C@@H](Cc1ccc(N(CCCl)CCCl)cc1)C(=O)O [Melphalan]
% of animals with kappa levels (above detection limit) (CAG HPSE high cells [6]; [8]): 70%
animals with detectable levels of human immunoglobulin light chain (detectable tumor burden) (CAG HPSE high cells [6]; [8]): 7/10
animals with detectable tumor burden (CAG HPSE high cells [7]; after initial melphalan treatment, PBS for the next two weeks): 7/11
survival (multiple myeloma): 5 years

Roneparstat
% of animals with kappa levels (above detection limit) (CAG HPSE high cells [1]): 70%
animals with detectable levels of human immunoglobulin light chain (detectable tumor burden) (CAG HPSE high cells [1]): 6/8
% of animals with kappa levels (above detection limit) (CAG HPSE high cells [6]; mouse, in vivo): 89%
animals with detectable levels of human immunoglobulin light chain (detectable tumor burden) (CAG HPSE high cells [6]; mouse, in vivo): 8/9
animals with detectable tumor burden (CAG HPSE high cells [7]; mouse, in vivo): 3/10
decrease of viability (MTT), agent administered alone (HPSE-high cells): neither roneparstat or carfilzomib provided significant results
extent of albuminuria and renal damage (diabetic nephropathy): markedly decreased
